# In patent US10760052B2, “Method of inhibiting tau phosphorylation” (priority 2012, dated 2020):
# Like-named read-outs stand apart in the source and are kept apart here.
# Biological target: T1, mu opiate receptor (MOR) (Rattus norvegicus, UniProt P33535)
# T1 construct: from tissue; host or cells: striatum (membrane preparation)
# Assay type: biochemical
# Conditions: for [35S]GTPγS binding, FLNA-Binding Compound as Agonist at 0.1 μM: 0.1 μM compound; for [35S]GTPγS binding, FLNA-Binding Compound as Agonist at 0.1 μM / [35S]GTPγS binding, FLNA-Binding Compound as Agonist at 1 μM: striatal membranes; for [35S]GTPγS binding, FLNA-Binding Compound as Agonist at 0.1 μM / [35S]GTPγS binding, FLNA-Binding Compound as Agonist at 1 μM + BFNA / [35S]GTPγS binding, FLNA-Binding Compound as Agonist at 1 μM: Series C-2; for [35S]GTPγS binding, FLNA-Binding Compound as Agonist at 1 μM + BFNA: 1 μM compound + 1 μM β-FNA (selective MOR antagonist); for [35S]GTPγS binding, FLNA-Binding Compound as Agonist at 1 μM: 1 μM compound
# [1] = [35S]GTPγS binding to Gαo in striatal membranes, compound 0.1 μM
# [2] = [35S]GTPγS binding to Gαo in striatal membranes, compound 1 μM
# [3] = [35S]GTPγS binding to Gαo in striatal membranes, compound 1 μM plus 1 μM β-funaltrexamine (MOR antagonist)
# T1 sequence (P33535 whole entry): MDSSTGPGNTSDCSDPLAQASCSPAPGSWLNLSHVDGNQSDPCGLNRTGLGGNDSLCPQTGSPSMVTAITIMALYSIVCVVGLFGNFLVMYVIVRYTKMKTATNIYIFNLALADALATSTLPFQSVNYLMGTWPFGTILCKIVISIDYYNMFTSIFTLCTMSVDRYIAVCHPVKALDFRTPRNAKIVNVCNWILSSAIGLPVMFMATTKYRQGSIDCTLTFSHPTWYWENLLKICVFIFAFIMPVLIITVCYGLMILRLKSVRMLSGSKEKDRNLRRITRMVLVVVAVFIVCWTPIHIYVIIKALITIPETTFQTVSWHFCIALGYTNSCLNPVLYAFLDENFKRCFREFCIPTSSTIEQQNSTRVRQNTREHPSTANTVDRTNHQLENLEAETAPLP
SMILES,% DAMGO (0.1 μM) [%],% DAMGO (1 μM) [%],% DAMGO + BFNA [%],Concentration of FLNA-Binding Compound as Agonist 0.1 μM [1] [%],Concentration of FLNA-Binding Compound as Agonist 1 μM [2] [%],Concentration of FLNA-Binding Compound as Agonist 1 μM + BFNA [3] [%],"[35S]GTPγS binding, FLNA-Binding Compound as Agonist at 0.1 μM [%]","[35S]GTPγS binding, FLNA-Binding Compound as Agonist at 1 μM + BFNA [%]","[35S]GTPγS binding, FLNA-Binding Compound as Agonist at 1 μM [%]",Concentration of FLNA-Binding Compound as Agonist 0.1 μM [%],Concentration of FLNA-Binding Compound as Agonist 1 μM [%],Concentration of FLNA-Binding Compound as Agonist 1 μM + BFNA [%]
Cc1ccccc1S(=O)(=O)N1CCC2(CC1)OCCN2S(=O)(=O)c1ccccc1C [Compound C0015],78.5,78.9,193.0,138.7,204.7,126.8,–,–,–,–,–,–
O=S(=O)(c1ccccc1)N1CCC2(CC1)OCCN2S(=O)(=O)c1ccccc1 [Compound C0016],100.4,83.3,150.9,172.7,230.5,96.7,–,–,–,–,–,–
COc1ccc(C(=O)N2CCC3(CC2)OCCN3C(=O)c2ccc(OC)cc2)cc1 [Compound C0017],87.1,109.7,143.2,153.8,284.5,94.1,–,–,–,–,–,–
COc1ccc(C(=O)N2CCC3(CC2)OCCN3S(=O)(=O)c2ccc(OC)cc2)cc1 [Compound C0018],110.7,95.5,162.1,195.5,247.7,106.5,–,–,–,–,–,–
COc1ccc(C(=O)N2CCOC23CCN(S(=O)(=O)c2ccc(OC)cc2)CC3)cc1 [Compound C0019],59.1,68.1,80.4,104.4,176.6,52.8,–,–,–,–,–,–
O=C(O)c1ccc(C(=O)N2CCC3(CC2)OCCN3S(=O)(=O)c2ccc(C(=O)O)cc2)cc1 [Compound C0021],94.5,87.8,546.4,159.7,192.0,90.7,–,–,–,–,–,–
O=C(c1ccc([N+](=O)[O-])cc1)N1CCC2(CC1)OCCN2S(=O)(=O)c1ccc([N+](=O)[O-])cc1 [Compound C0022],113.5,123.2,25.7,194.3,328.7,13.4,–,–,–,–,–,–
Nc1ccc(C(=O)N2CCC3(CC2)OCCN3S(=O)(=O)c2ccc(N)cc2)cc1 [Compound C0023],89.5,87.6,44.5,153.2,233.7,23.2,–,–,–,–,–,–
CNc1ccc(S(=O)(=O)N2CCC3(CC2)OCCN3S(=O)(=O)c2ccc(NC)cc2)cc1 [Compound C0024],92.8,84.1,135.1,178.4,229.6,59.3,–,–,–,–,–,–
O=S(=O)(c1ccc(Br)cc1)N1CCC2(CC1)OCCN2S(=O)(=O)c1ccc(Br)cc1 [Compound C0025],122.6,117.5,182.7,235.7,320.7,80.2,–,–,–,–,–,–
COc1ccc(S(=O)(=O)N2CCC3(CC2)NCCO3)cc1 [Compound C0026],107.7,105.6,48.3,–,–,–,207.2,21.2,288.4,–,–,–
COc1ccc(S(=O)(=O)N2CCOC23CCNCC3)cc1 [Compound C0027],121.3,115.0,164.5,–,–,–,233.2,72.2,313.9,–,–,–
COC(=O)c1ccc(S(=O)(=O)N2CCC3(CC2)OCCN3S(=O)(=O)c2ccc(C(=O)OC)cc2)cc1 [Compound C0028],55.6,60.5,472.3,93.9,132.4,78.4,–,–,–,–,–,–
O=S(=O)(c1ccc(F)cc1)N1CCC2(CC1)OCCN2S(=O)(=O)c1ccc(F)cc1 [Compound C0029],91.2,113.1,37.8,175.4,308.8,16.6,–,–,–,–,–,–
CCCCc1ccc(S(=O)(=O)N2CCC3(CC2)OCCN3S(=O)(=O)c2ccc(CCCC)cc2)cc1 [Compound C0030],96.0,98.0,291.4,150.3,226.8,95.0,–,–,–,–,–,–
O=C(c1ccc([N+](=O)[O-])cc1)N1CCC2(CC1)OCCN2C(=O)c1ccc([N+](=O)[O-])cc1 [Compound C0032],92.8,87.3,248.2,145.4,202.0,80.9,–,–,–,–,–,–
O=C(c1ccc([N+](=O)[O-])cc1)N1CCC2(CC1)OCCN2S(=O)(=O)c1ccc([N+](=O)[O-])cc1 [Compound C0033],85.9,80.6,235.0,134.5,186.4,76.6,–,–,–,–,–,–
NS(=O)(=O)c1ccc(S(=O)(=O)N2CCC3(CC2)OCCN3S(=O)(=O)c2ccc(S(N)(=O)=O)cc2)cc1 [Compound C0034],61.3,76.7,482.5,–,–,–,–,–,–,103.6,167.9,80.1
O=[N+]([O-])c1ccc(S(=O)(=O)N2CCC3(CC2)NCCO3)cc1 [Compound C0040],93.1,133.2,277.3,–,–,–,145.8,90.4,308.3,–,–,–
COc1ccc(NC(=O)N2CCC3(CC2)OCCN3S(=O)(=O)c2ccc(OC)cc2)cc1 [Compound C0041],110.1,111.7,575.3,186.1,244.4,95.5,–,–,–,–,–,–
O=C(OCc1ccccc1)c1ccc(S(=O)(=O)N2CCC3(CC2)OCCN3S(=O)(=O)c2ccc(C(=O)OCc3ccccc3)cc2)cc1 [Compound C0042],98.9,119.2,666.3,167.1,260.9,110.6,–,–,–,–,–,–
COc1ccc(S(=O)(=O)N2CCOC23CCN(C(=O)OC(C)(C)C)CC3)cc1 [Compound C0043],103.8,110.9,501.8,–,–,–,175.4,83.3,242.6,–,–,–
O=[N+]([O-])c1ccc(S(=O)(=O)N2CCC3(CC2)NCCS3)cc1 [Compound C0044],102.8,128.0,356.0,–,–,–,173.7,59.1,280.1,–,–,–
O=[N+]([O-])c1ccc(S(=O)(=O)N2CCC3(CC2)NCCCO3)cc1 [Compound C0045],88.3,109.1,634.3,–,–,–,149.2,105.3,238.8,–,–,–
CC(=O)c1ccc(S(=O)(=O)N2CCOC23CCNCC3)cc1 [Compound C0046],197.4,211.5,356.4,–,–,–,286.2,156.8,492.9,–,–,–
COc1ccc(S(=O)(=O)N2CCOC23CCN(S(=O)(=O)c2ccc(C(C)=O)cc2)CC3)cc1 [Compound C0047],98.1,88.5,182.0,142.2,206.1,80.1,–,–,–,–,–,–
COc1ccc(S(=O)(=O)N2CCC3(CC2)OCCN3S(=O)(=O)c2ccc(C(C)=O)cc2)cc1 [Compound C0048],144.2,105.3,204.3,–,–,–,–,–,–,209.1,245.3,89.9
